Where “and” joins values, the source holds several entries; their conditions need not be identical. Identical values can stand only once. Like-named read-outs stand apart in the source and are kept apart here.
Key:
[1] = from Kortylewicz, et al. (2020) J Med Chem; cited from earlier work
[2] = from Kortylewicz, et al. (2020) J Med Chem; cited from earlier work; remark: listed apart in the source
[3] = target: T1, norepinephrine transporter (Homo sapiens, UniProt P23975); assay: Competitive uptake assay with nonradioactive MIBG in SK-N-SH cells; type: cell-based; settings: 50 μM nonradioactive MIBG; 25.8±0.7 kBq/ml GPAID; exponentially growing SK cell monolayers
T1 construct: These cells represent a well-established robust model for the NET-specific MIBG uptake; endogenous in cells; host or cells: SK (SK-N-SH) and BE (BE(2)-C) neuroblastoma cells, exponentially growing monolayers
Experimental: (§1) Cells were plated into T25 flasks and allowed to grow until ˜60%-70% confluent. Fresh medium (3 ml) was added to one set of flasks (n=4 per time). To the second set of flasks (n=4 per time), fresh medium (3 ml) containing 100-μM nonradioactive MIBG was added. All cells were returned to the incubator for 30 minutes, after which time 3 ml of medium containing GPAID (51.5±1.4 kBq/ml) was added to produce the final concentration of 50-μM MIBG and 25.8±0.7 kBq/ml GPAID. Cells were returned to the incubator for additional 1, 24, and 48 hours. At designated times, media were removed, monolayer washed 1× with full medium, 2× with PBS, and SK and BE cells were harvested with the nonenzymatic cell dissociation solution (Sigma-Aldrich). N1E cells were harvested by flushing the monolayer with spent media. Cell numbers were determined, and their radioactive content measured in a gamma counter. The whole cell uptake was calculated on terms of MBq per cells. The clonogenic survival was calculated as the ratio of the number of colonies produced by cells treated with nonradioactive MIBG and GPAID to the number of colonies produced by cells treated with GPAID only. The cell survival at 24 hours was expressed as the ratio of viable cells in treatment groups to cells in untreated controls.

[4] = target: T1, norepinephrine transporter; assay: Competitive uptake assay with nonradioactive MIBG in BE(2)-C cells; type: cell-based; settings: 50 μM nonradioactive MIBG; 25.8±0.7 kBq/ml GPAID; exponentially growing BE cell monolayers
Experimental: as §1

BE(2)-C cells [5] = assay: Clonogenic survival of BE(2)-C cells; type: cell-based, human; settings: on average
Experimental: as §1

NET = NET (Homo sapiens, UniProt P23975); settings: Smets, et al. (1989) Cancer Res.; cited from earlier work
N1E-115 cells = assay: Subcellular distribution in N1E-115 cells; type: cell-based, murine
Text: (§2) Two human NB cell lines SK-N-SH (SK) and BE(2)-C(BE) and one murine NB cell line N1E-115 (N1E) were purchased from the American Type Culture Collection (ATCC; Manassas, VA). Cells were maintained according to the vendor's instructions. For animal studies, cells were harvested when ˜70% confluent and cryopreserved until ready to use.
(§3) Established protocols were used in these experiment (Kortylewicz, et al. (2020) J Med Chem., 63:2051-2073; Baranowska-Kortylewicz, et al. (1994) J Label Compd Radiopharm., 34(6):513-521; Kortylewicz, et al. (2009) J Med Chem., 52(16):5124-5143). Briefly, NB cells plated in TPP T25 flasks (Midwest Scientific, Valley Park, MO) at 5×10^5 cells per flask were maintained in culture for 48-72 hours, depending on the doubling time of the cell line, until 60%-70% confluent. For time-dependent uptake studies, GPAID was added to the growth medium to produce the average concentrations of 28.2±5.5, 27.6±2.8, and 30.7±1.0 kBq/ml in SK, BE, and N1E cells, respectively. Radioactive medium was removed after 1, 5, 16, 24, and 48 hours in culture (n=4 per time). Cells were harvested by scraping and enumerated using Cellometer (Nexcelom Bioscience, Lawrence, MA). Cell suspensions were centrifuged for 10 minutes at 1500 rpm; cell pellets resuspended in ice-cold PBS, transferred into microfuge tubes, and centrifuged at 500×g for 10 minutes. The radioactive content of cell pellets was measured in a gamma counter. The cellular uptake was calculated in terms of MBq per cell. For subcellular fractionation experiments, NB cells grown as monolayers were treated with GPAID and processed as described (Kortylewicz, et al. (2020) J Med Chem., 63:2051-2073). In the concentration-dependent uptake experiments, GPAID in the appropriate medium at several concentrations was added to the cell monolayers. Cells were processed after 1-hour incubation. Radioactive medium was removed, and monolayers were washed once with full nonradioactive medium and PBS. Cells were harvested and enumerated, and their radioactive content was measured.

[6] = Ex vivo stability in human serum; type: in vitro ADME; settings: 37° C., 5% CO2; average±SE; monoexponential fit of percent intact compound
Experimental: (§4) Aliquots of GPAID (1.4-2.3 MBq) in 120 μl of 25% EtOH/PB (10-mM, pH 6.1) were added to 6.88-ml phosphate-buffered saline (PBS), cell culture media, or serum (mouse, pig, or human). Mixtures were briefly vortexed and incubated at 37° C. and 5% CO2. At selected times, 1 ml of GPAID incubation mixture was withdrawn, 1-ml MeCN was added, and the mixture was vortexed and centrifuged at 2000 rpm for 15 minutes at 4° C. The supernatant was removed, and the radioactivity measured. Supernatant (250-500 μl) were acidified to pH˜6 with 0.05-N TFA (2-8 μl). The excess of MeCN was evaporated with a stream of nitrogen and 100 μl of water added. This mixture was passed through a 0.22-μm filter and 100 μl (111-185 kBq) injected onto the HPLC system. HPLC analysis of extracts proceeded on the ACE C18 100-A column ([…], 4.6×250 mm) eluted at 0.8 ml/minute with a linear gradient of MeCN from 10% to 95% over 45 minutes and kept at 95% MeCN for 15 minutes the radioactivity detection (Bioscan). Both solvents contained 0.07% TFA (v/v).
(§5) Ex vivo stability of GPAID was assessed in PBS, cell culture medium without NB cells, and in the presence of NB cells and in human, mouse, and porcine sera after various times of incubation. […] Half-lives in sera were calculated from the area under the peak of the intact GPAID recovered from the incubation mixtures plotted as a function of the incubation time. […]

[7] = Ex vivo stability in pig serum; type: in vitro ADME; settings: 37° C., 5% CO2; average±SE; monoexponential fit of percent intact compound
Experimental: as §4, §5

[8] = Ex vivo stability in mouse serum; type: in vitro ADME; settings: mouse serum contains esterases including carboxylesterase
Experimental: as §4, §5

Stability in PBS = type: physicochemical; settings: 37° C.
Experimental: as §4, §5

[9] = Stability in cell culture medium without NB cells; type: physicochemical; settings: 5% CO2
Experimental: as §4, §5

SK-N-SH cells [10] = assay: Radioactive species in medium recovered from NB cell monolayers cultured with GPAID; type: cell-based, human
Experimental: as §4
Ex vivo stability of GPAID was assessed in PBS, cell culture medium without NB cells, and in the presence of NB cells and in human, mouse, and porcine sera after various times of incubation. The analytical details are provided hereinabove. Half-lives in sera were calculated from the area under the peak of the intact GPAID recovered from the incubation mixtures plotted as a function of the incubation time. The degradation curves followed the first-order kinetics. Data were fitted into the monoexponential equations with the intercept set at 100% (FIG. 2A). In a typical experiment, a final concentration of GPAID in serum approximated radioactivity levels of ^131IMIBG in blood of children receiving therapeutic doses (Pandit-Taskar, et al. (2017) Clin Nucl Med., 42(10):741-748; Matthay, et al. (1998) J Clin Oncol., 16(1):229-236). 0

[11] = tested on: BE(2)-C and SK-N-SH cells; assay: Time- and concentration-dependent cellular uptake, statements covering both NB cell lines; type: cell-based, human
Text: as §2, §3

BE(2)-C cells [12] = assay: Subcellular distribution in BE(2)-C cells; type: cell-based, human
Text: as §2, §3

SK-N-SH cells [13] = assay: Subcellular distribution in SK-N-SH cells; type: cell-based, human
Text: as §2, §3

NB cells = assay: Survival of NB cells, trypan blue exclusion method followed by clonogenic assay; type: cell-based, human; settings: trypan blue exclusion and clonogenic assay; 25.8±0.7 kBq/ml
Experimental: as §1

N1E-115 tumors = assay: Therapy of mice bearing IP N1E allografts; type: in vivo; settings: single IP dose 3.64±0.10 MBq per mouse 1 week after implant; 14 days after treatment; NT controls 2.61±0.57 g; p=0.03
Experimental: Research involving animals was performed in accordance with the UNMC institutional guidelines and protocols as defined by the Institutional Animal Care and Use Committee for US institutions. Athymic NCr nude mice (spontaneous mutant) were purchased from Taconic (Rensselaer, NY). The intraperitoneal route […] was used for the tumor implant and dose administration. All experiments were conducted in mice of both genders 4 to 8 weeks old.
Four-week-old NCr nu/nu mice, male (n=10) and female (n=10), received IP implant of 5×10^6 N1E cells. One week later, mice were randomly assigned via a lottery to either control or treatment group. Control mice were given IP injection of the vehicle. Mice in the therapy group received a bolus IP injection of 3.64±0.10 MBq GPAID per mouse (˜145 MBq/kg body weight [bw]). Triplicate aliquots of the injected dose (ID) were counted in a gamma counter. Syringes containing the dose and syringes after the injection were weighed on the analytical balance to determine ID. Whole body radioactivity was also measured immediately after each injection to confirm ID. Necropsy was performed at the termination of the experiment. Blood was collected via cardiac puncture. […]
All variables are expressed as average±standard deviation or ±standard error. The cellular uptake, cell survival, and other biological properties were analyzed using two-sided Student's t test. […]

[14] = Hemoglobin and hematocrit in treated tumor-bearing mice; type: in vivo; settings: mice treated with 3.64±0.10 MBq GPAID IP; termination necropsy
Text: (§6) Four-week-old NCr nu/nu mice, male (n=10) and female (n=10), received IP implant of 5×10^6 N1E cells. One week later, mice were randomly assigned via a lottery to either control or treatment group. Control mice were given IP injection of the vehicle. Mice in the therapy group received a bolus IP injection of 3.64±0.10 MBq GPAID per mouse (˜145 MBq/kg body weight [bw]). Triplicate aliquots of the injected dose (ID) were counted in a gamma counter. Syringes containing the dose and syringes after the injection were weighed on the analytical balance to determine ID. Whole body radioactivity was also measured immediately after each injection to confirm ID. Necropsy was performed at the termination of the experiment. Blood was collected via cardiac puncture. Aliquots were reserved for determination of hemoglobin (Hb; HemoCue, Ängelholm, Sweden) and hematocrit (Hct).

[15] = Biodistribution at necropsy 14 days after the dose; type: in vivo, mice; settings: necropsy 14 days after the IP dose
Text: as §6

[16] = monoprotonated cation at physiological pH; cited from earlier work
[17] = N1E cells, 24-hour incubation, average 29±3 kBq/ml
[18] = incubated with exponentially growing NB cell monolayers for 24 hours
[19] = 1 hour with GPAID, washed, additional 4 hours in nonradioactive medium

T1 sequence (P23975 whole entry): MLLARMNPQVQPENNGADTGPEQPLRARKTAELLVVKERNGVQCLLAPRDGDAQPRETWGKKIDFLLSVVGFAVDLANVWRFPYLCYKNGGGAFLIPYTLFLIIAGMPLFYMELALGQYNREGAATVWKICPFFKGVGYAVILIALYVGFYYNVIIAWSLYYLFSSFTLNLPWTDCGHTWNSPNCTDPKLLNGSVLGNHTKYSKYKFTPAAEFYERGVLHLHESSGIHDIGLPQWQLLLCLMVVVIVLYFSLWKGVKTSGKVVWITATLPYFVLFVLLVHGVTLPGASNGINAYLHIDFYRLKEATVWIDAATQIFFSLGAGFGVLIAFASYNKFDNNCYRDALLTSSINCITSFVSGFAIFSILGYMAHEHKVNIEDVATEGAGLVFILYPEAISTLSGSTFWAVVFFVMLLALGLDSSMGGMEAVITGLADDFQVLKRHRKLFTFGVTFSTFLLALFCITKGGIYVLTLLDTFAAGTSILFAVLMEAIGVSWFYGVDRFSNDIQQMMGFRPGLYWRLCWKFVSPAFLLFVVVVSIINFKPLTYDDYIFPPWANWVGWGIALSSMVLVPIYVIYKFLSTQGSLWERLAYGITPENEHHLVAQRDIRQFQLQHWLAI
Chain of NET (P23975 whole entry): as above

N=C(N)NCCCCCC(=O)O[C@H]1C[C@H](n2cc([125I])c(=O)[nH]c2=O)O[C@@H]1CO [IDG, 5-[^125I]iodo-3′-O-(ε-guanidinohexanoyl)-2′-deoxyuridine]
Half-life in human serum [1]: 2.3 ± 0.1 h and ~2.3 h | Half-life in pig serum [2]: 3.6 ± 0.1 h

N=C(N)NCc1cccc([131I])c1 [MIBG, metaiodobenzylguanidine]
Inhibition of GPAID uptake [3]: 70% | Inhibition of GPAID uptake [4]: 85% | Colonies from cells exposed to nonradioactive MIBG alongside GPAID compared with GPAID alone (BE(2)-C cells [5]; 50-μM MIBG, 25.8±0.7 kBq/ml GPAID): 3 × | Concentration at which uptake begins to saturate (NET): > 500 nM | Concentration up to which uptake is linear (NET): ~100 nM

N=C(N)NCc1cccc([125I])c1 [^125IMIBG]
Recovery in the cytoplasmic fraction (N1E-115 cells; N1E cells, 24-hour incubation): majority | ^125I recovered in DNA (DNA pellet) (N1E-115 cells; [17]): 0% | ^125I retrieved in the soluble nuclear fraction (N1E-115 cells; [17]): ~19%

(R)-(−)-5-[^125I]Iodo-3′-O-[2-(ε-guanidinohexanoyl)-2-phenylacetyl]-2′-deoxyuridine [GPAID]
Half-life in human serum [6]: 7.9 ± 0.7 h | Half-life in pig serum [7]: 5.8 ± 2.1 h | Stability in mouse serum [8]: not stable | Stability in PBS (Stability in PBS): stable | Stability in cell culture in the absence of NB cells ([9]; 37° C.): stable | Intact GPAID remaining in cell culture medium without cells ([9]; 24 hours at 37° C.): > 90% | Total radioactivity in the form of either free ^125I or ^125I-uracil in medium (SK-N-SH cells [10]; SK-N-SH cells cultured with GPAID for 24 hours at 37° C., 5% CO2 (FIG. 2D)): ~30% | Intact GPAID in recovered media (SK-N-SH cells [10]; [18]): ~42% | ^125IUdR in recovered media (SK-N-SH cells [10]; [18]): ~28% | ^125I disintegrations accumulated in 24 hours ([11]; 1-hour exposure, all tested concentrations >0.015 MBq/ml): > 20 disintegrations per cell | Dependence of cellular radioactivity on extracellular concentration ([11]; 1-hour treatment, entire tested range up to 200 kBq/ml (2.45×10^−9 M)): directly proportional to the extracellular concentration of GPAID | Cellular uptake in BE cells compared with SK cells ([11]; 1 hour incubation, washed and processed immediately): nearly identical | Total cellular radioactivity associated with DNA (BE(2)-C cells [12]; [19]): > 95% | Total recovered ^125I in DNA (BE(2)-C cells [12]; after 1 hour with GPAID): 32% | ^125I associated with DNA (BE(2)-C cells [12]; at 24 hours): practically all | Total cellular radioactivity associated with DNA (SK-N-SH cells [13]; [19]): ~75% | Total recovered ^125I in DNA (SK-N-SH cells [13]; after 1 hour with GPAID): ~22% | ^125I associated with DNA (SK-N-SH cells [13]; at 24 hours): practically all | ^125I recovered in DNA (DNA pellet) (N1E-115 cells; [17]): > 99% | ^125I activity in the nuclei bound to DNA (N1E-115 cells; N1E-115 cells, 24-hour treatment, 29±3 kBq/ml (FIG. 3E)): ~100% | BE cells that survived, retained reproductive integrity and formed colonies (BE(2)-C cells [5]; GPAID extracellular concentration 25.8±0.7 kBq/ml): 32% | Survival of NB cells treated with GPAID alone (NB cells): significant reduction in survival | Average tumor weight at necropsy (N1E-115 tumors): 0.88 ± 0.54 g | HCt level [14]: within the normal range values | Hb level [14]: within the normal range values | Residual level in the adrenal glands [15]: 0.034±0.016 % ID/g | Radioactivity retention in tissues ([15]; all tissues): only marginal radioactivity retention | pKa [16]: ~12

From patent publication US12636386B2, “Compositions and methods for the treatment and imaging of cancer” (BOARD OF REGENTS OF THE UNIVERSITY OF NEBRASKA, priority 2021, dated 2026)
